Assay results from article PMC6969517 (Proceedings of the National Academy of Sciences of the …, 2019).

Molecular target: T1, ShkA (Caulobacter vibrioides, UniProt Q9ABT2)
T1 sequence (Q9ABT2 1-514): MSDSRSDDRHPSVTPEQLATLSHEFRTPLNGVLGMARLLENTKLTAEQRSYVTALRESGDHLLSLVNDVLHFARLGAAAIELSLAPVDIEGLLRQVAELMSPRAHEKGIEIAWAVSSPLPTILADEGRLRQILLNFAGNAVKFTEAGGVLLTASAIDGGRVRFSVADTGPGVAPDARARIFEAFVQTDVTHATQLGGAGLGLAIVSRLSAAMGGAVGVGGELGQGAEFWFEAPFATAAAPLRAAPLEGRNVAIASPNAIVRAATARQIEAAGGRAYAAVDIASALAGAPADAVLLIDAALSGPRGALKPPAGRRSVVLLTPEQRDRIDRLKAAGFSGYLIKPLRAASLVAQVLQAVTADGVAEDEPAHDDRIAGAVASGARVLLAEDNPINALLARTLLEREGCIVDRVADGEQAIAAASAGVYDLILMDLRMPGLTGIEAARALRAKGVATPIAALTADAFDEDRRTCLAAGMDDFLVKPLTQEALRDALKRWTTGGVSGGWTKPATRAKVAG
Test: FCA and ITC
Format: biochemical

Structure (SMILES): Nc1ncnc2c1ncn2[C@@H]1O[C@H](COP(=O)(O)OP(=O)(O)O)[C@@H](O)[C@H]1O [ADP]
- Ki: ~60 µM
